Results reported in the supplement of paper PMC11451515.

What was measured:
Conditions in all cases: 48 h
P12-Ichikawa [1] = assay: cell viability relative to DMSO control; higher = less cytotoxic
In short: (§1)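 NOMO1 or SEM (500 cells/well) or P12-Ichikawa (1000 cells/well) leukemia cells were adapted for at least four passages in each medium. They were seeded in 1536-well plates (5 μl) and pin-dosed with library compounds in DMSO over an 11-point threefold series, 47 μM to 0.79 nM. CellTiter-Glo One luminescence was read after 48 h at 37°C. Viability is the per-plate percentage relative to DMSO wells, with cell-free wells as background.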

NOMO1 [2] = assay: as above
In short: as §1

SEM cells [3] = assay: as above
In short: as §1

P12-Ichikawa [4] = assay: AUC of viability dose-response curve (% viability x log10 dose units); higher = less sensitive
In short: (§2)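 Leukemia cells adapted to each medium (500 or 1000 cells/well, 1536-well plates) were exposed to library compounds in DMSO for 48 h at 37°C at 11 threefold doses, 47 μM to 0.79 nM. Luminescence by CellTiter-Glo One was normalised per plate to DMSO and cell-free wells, then fitted with a four-parameter log-logistic curve on log10 dose. Curves above full viability were scaled and quality-control failures removed before area under the curve was integrated by trapezoidal rule.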

NOMO1 [5] = assay: as above
In short: as §2

SEM cells [6] = assay: as above
In short: as §2

CCOCC(O)COc1ccc(NC(=O)CC[S+](C)C)cc1 (stereo not given)
cell viability [%]
Conditions | NOMO1 [2] | P12-Ichikawa [1] | SEM cells [3]
HPLM + 10% dialyzed FBS, 0.000781 µM | 91.1 | 87.3 | 88.2
HPLM + 10% dialyzed FBS, 0.00234 µM | 84.9 | 82.5 | 77.9
HPLM + 10% dialyzed FBS, 0.00702 µM | 106 | 87.9 | 93.7
HPLM + 10% dialyzed FBS, 0.0211 µM | 98.4 | 96 | 90.5
HPLM + 10% dialyzed FBS, 0.0632 µM | 93.1 | 91.9 | 94.2
HPLM + 10% dialyzed FBS, 0.19 µM | 92.4 | 88.1 | 93.5
HPLM + 10% dialyzed FBS, 0.569 µM | 110 | 98.5 | 106
HPLM + 10% dialyzed FBS, 1.71 µM | 107 | 98 | 91.9
HPLM + 10% dialyzed FBS, 5.12 µM | 97 | 93.7 | 109
HPLM + 10% dialyzed FBS, 15.4 µM | 107 | 99 | 107
HPLM + 10% dialyzed FBS, 46.1 µM | 98.5 | 95 | 84.8
RPMI 5 mM glucose + 10% FBS, 0.000781 µM | 77.9 | 88.2 | 77.9
RPMI 5 mM glucose + 10% FBS, 0.00234 µM | 87.1 | 90.5 | 92.1
RPMI 5 mM glucose + 10% FBS, 0.00702 µM | 86.7 | 93 | 85.9
RPMI 5 mM glucose + 10% FBS, 0.0211 µM | 86.7 | 97.9 | 80.9
RPMI 5 mM glucose + 10% FBS, 0.0632 µM | 87.3 | 91.3 | 85.2
RPMI 5 mM glucose + 10% FBS, 0.19 µM | 82.1 | 95.9 | 103
RPMI 5 mM glucose + 10% FBS, 0.569 µM | 89.7 | 95.9 | 95.3
RPMI 5 mM glucose + 10% FBS, 1.71 µM | 80.8 | 97.3 | 76.7
RPMI 5 mM glucose + 10% FBS, 5.12 µM | 91 | 94.4 | 106
RPMI 5 mM glucose + 10% FBS, 15.4 µM | 94.3 | 104 | 104
RPMI 5 mM glucose + 10% FBS, 46.1 µM | 84.2 | 92.3 | 72.2
RPMI 5 mM glucose + 10% dialyzed FBS, 0.000781 µM | 82.1 | 85.3 | 76.2
RPMI 5 mM glucose + 10% dialyzed FBS, 0.00234 µM | 81.8 | 74.7 | 88.3
RPMI 5 mM glucose + 10% dialyzed FBS, 0.00702 µM | 78.1 | 88.7 | 82.6
RPMI 5 mM glucose + 10% dialyzed FBS, 0.0211 µM | 96.5 | 88.8 | 73.5
RPMI 5 mM glucose + 10% dialyzed FBS, 0.0632 µM | 90.6 | 82.7 | 91.2
RPMI 5 mM glucose + 10% dialyzed FBS, 0.19 µM | 90.7 | 91.3 | 96.8
RPMI 5 mM glucose + 10% dialyzed FBS, 0.569 µM | 86.3 | 89.5 | 95.9
RPMI 5 mM glucose + 10% dialyzed FBS, 1.71 µM | 84.4 | 84.6 | 102
RPMI 5 mM glucose + 10% dialyzed FBS, 5.12 µM | 95.3 | 85.6 | 107
RPMI 5 mM glucose + 10% dialyzed FBS, 15.4 µM | 80.1 | 88 | 112
RPMI 5 mM glucose + 10% dialyzed FBS, 46.1 µM | 85.9 | 78.8 | 72.1

AUC of viability dose-response curve
Conditions | NOMO1 [5] | P12-Ichikawa [4] | SEM cells [6]
HPLM + 10% dialyzed FBS | 460 | 442 | 451
RPMI 5 mM glucose + 10% FBS | 411 | 452 | 424
RPMI 5 mM glucose + 10% dialyzed FBS | 413 | 408 | 433

C1CN\2C[C@@H](\N=C2S1)C3=CC=CC=C3
cell viability [%]
Conditions | NOMO1 [2] | P12-Ichikawa [1] | SEM cells [3]
HPLM + 10% dialyzed FBS, 0.000781 µM | 101 | 94.4 | 82.1
HPLM + 10% dialyzed FBS, 0.00234 µM | 98.4 | 105 | 95
HPLM + 10% dialyzed FBS, 0.00702 µM | 103 | 99.8 | 104
HPLM + 10% dialyzed FBS, 0.0211 µM | 96.9 | 104 | 88.6
HPLM + 10% dialyzed FBS, 0.0632 µM | 104 | 108 | 98.7
HPLM + 10% dialyzed FBS, 0.19 µM | 114 | 106 | 99.5
HPLM + 10% dialyzed FBS, 0.569 µM | 102 | 107 | 100
HPLM + 10% dialyzed FBS, 1.71 µM | 94.8 | 108 | 100
HPLM + 10% dialyzed FBS, 5.12 µM | 91.3 | 103 | 97.8
HPLM + 10% dialyzed FBS, 15.4 µM | 97.7 | 108 | 100
HPLM + 10% dialyzed FBS, 46.1 µM | 60.3 | 111 | 86.1
RPMI 5 mM glucose + 10% FBS, 0.000781 µM | 87.9 | 96.3 | 73.7
RPMI 5 mM glucose + 10% FBS, 0.00234 µM | 88.6 | 105 | 86.7
RPMI 5 mM glucose + 10% FBS, 0.00702 µM | 90.1 | 96 | 89.4
RPMI 5 mM glucose + 10% FBS, 0.0211 µM | 90.2 | 93.4 | 83.1
RPMI 5 mM glucose + 10% FBS, 0.0632 µM | 104 | 98.7 | 90.9
RPMI 5 mM glucose + 10% FBS, 0.19 µM | 88.5 | – | 75.2
RPMI 5 mM glucose + 10% FBS, 0.569 µM | 89.5 | 102 | 87.6
RPMI 5 mM glucose + 10% FBS, 1.71 µM | 90.8 | 106 | 89.3
RPMI 5 mM glucose + 10% FBS, 5.12 µM | 95.8 | 99.8 | 88
RPMI 5 mM glucose + 10% FBS, 15.4 µM | 91 | 103 | 87.8
RPMI 5 mM glucose + 10% FBS, 46.1 µM | 103 | 105 | 40.4
RPMI 5 mM glucose + 10% dialyzed FBS, 0.000781 µM | 87.6 | 87 | 88.8
RPMI 5 mM glucose + 10% dialyzed FBS, 0.00234 µM | 88.8 | 93.9 | 95.3
RPMI 5 mM glucose + 10% dialyzed FBS, 0.00702 µM | 85.3 | 90.1 | 100
RPMI 5 mM glucose + 10% dialyzed FBS, 0.0211 µM | 90.5 | 94.4 | 107
RPMI 5 mM glucose + 10% dialyzed FBS, 0.0632 µM | 93.3 | 101 | 106
RPMI 5 mM glucose + 10% dialyzed FBS, 0.19 µM | 88.5 | 102 | 116
RPMI 5 mM glucose + 10% dialyzed FBS, 0.569 µM | 86.8 | 92.7 | 107
RPMI 5 mM glucose + 10% dialyzed FBS, 1.71 µM | 99.9 | 98.3 | 106
RPMI 5 mM glucose + 10% dialyzed FBS, 5.12 µM | 84 | 101 | 118
RPMI 5 mM glucose + 10% dialyzed FBS, 15.4 µM | 93 | 96.8 | 100
RPMI 5 mM glucose + 10% dialyzed FBS, 46.1 µM | 91.7 | 90.8 | 76.9

AUC of viability dose-response curve
Conditions | NOMO1 [5] | P12-Ichikawa [4] | SEM cells [6]
HPLM + 10% dialyzed FBS | 465 | 467 | 459
RPMI 5 mM glucose + 10% FBS | 442 | 462 | 396
RPMI 5 mM glucose + 10% dialyzed FBS | 429 | 455 | 476
